According to article PMC6814236, “Monitoring and characterizing soluble and membrane-bound ectonucleotidases CD73 and CD39” (PLoS ONE, 2019):

Legend:
CD39 (His-Tag Human) = molecular target: T1, CD39 (His-Tag Human) (Homo sapiens, UniProt P49961); assay: Enzyme activity of purified CD39 with ATP or ADP as substrate; type: biochemical; conditions: 0.1ng CD39, 10 μM ATP or 10 μM ADP, 30min at 37°C
T1 construct: His; purchased R&D Systems
T1 sequence (P49961 1-510): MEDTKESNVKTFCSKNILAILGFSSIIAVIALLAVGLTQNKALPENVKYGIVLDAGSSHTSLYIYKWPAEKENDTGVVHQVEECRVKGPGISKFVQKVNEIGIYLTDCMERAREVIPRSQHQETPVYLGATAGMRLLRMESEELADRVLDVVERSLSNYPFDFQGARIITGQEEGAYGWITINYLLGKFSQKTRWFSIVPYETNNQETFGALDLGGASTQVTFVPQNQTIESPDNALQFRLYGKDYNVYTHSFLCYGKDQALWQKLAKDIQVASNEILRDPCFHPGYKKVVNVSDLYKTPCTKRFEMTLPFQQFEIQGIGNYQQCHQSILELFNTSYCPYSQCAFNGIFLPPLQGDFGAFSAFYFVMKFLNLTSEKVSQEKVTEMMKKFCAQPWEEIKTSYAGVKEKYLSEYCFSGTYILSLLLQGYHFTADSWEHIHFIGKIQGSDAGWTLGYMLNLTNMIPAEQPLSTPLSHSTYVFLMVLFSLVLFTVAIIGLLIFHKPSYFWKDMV
Method: • 2 Determination of enzyme activity of purified cytosolic cN-II. Activity of purified cN-II (Human cytosolic 5'-Nucleotidase) was determined using 25μl reaction buffer (50mM HEPES, pH 7.0, 100mM KCl, 20mM MgCl2, 5mM DTT, 2.5mM dATP, and 0.1mg/ml BSA) containing enzyme and AMP substrate at 10μM (96-well format). Reaction continued at 37°C for 60 minutes or for a certain time period and terminated by the addition of equal volume (25μl) of AMP-Glo™ Reagent I. Reactions were mixed well and incubated for additional 30 min at 23°C. This was followed by the addition of 50 μl of AMP Detection Solution (10μl of AMP-Glo™ Reagent II per ml of Kinase-Glo® One Solution) and incubated for additional 60 min at 23°C before reading luminescence. • 3 Determination of enzyme activity of purified CD39. […] When ATP is used as a substrate, an equal volume of Kinase-Glo® One Solution was added to CD39 reactions and incubated for 15 min before reading luminescence using a luminometer. When ADP is used as a substrate for CD39, after enzyme reaction completion, an equal volume of AMP Detection Solution with a known CD39 known inhibitor, such as POM 1 at 50μM final concentration was added. Reactions were mixed well and incubated for 60min before reading luminescence using luminometer. For enzyme dilution, reaction buffer can be used for dilution of enzymes.

[1] = molecular target: T2, Recombinant Human 5'-Nucleotidase/CD73 (Homo sapiens, UniProt P21589); assay: Enzyme activity of purified CD73 (AMP-Glo assay); type: biochemical
T2 construct: purchased R&D Systems
T2 sequence (P21589 27-574): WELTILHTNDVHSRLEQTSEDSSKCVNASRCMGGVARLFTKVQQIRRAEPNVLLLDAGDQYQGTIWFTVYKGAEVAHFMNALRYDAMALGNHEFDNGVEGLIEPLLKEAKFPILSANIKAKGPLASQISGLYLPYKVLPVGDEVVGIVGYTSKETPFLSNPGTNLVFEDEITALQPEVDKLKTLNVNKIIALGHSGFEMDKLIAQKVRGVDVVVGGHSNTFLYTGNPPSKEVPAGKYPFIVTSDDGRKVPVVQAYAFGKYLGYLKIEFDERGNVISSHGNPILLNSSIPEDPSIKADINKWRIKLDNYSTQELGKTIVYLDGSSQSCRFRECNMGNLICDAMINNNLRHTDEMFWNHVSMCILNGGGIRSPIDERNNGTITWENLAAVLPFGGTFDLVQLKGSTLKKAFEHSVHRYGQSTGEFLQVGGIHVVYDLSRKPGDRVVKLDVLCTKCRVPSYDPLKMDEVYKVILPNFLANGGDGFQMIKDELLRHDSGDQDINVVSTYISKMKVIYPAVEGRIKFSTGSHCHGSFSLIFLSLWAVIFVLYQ
Method: • Determination of enzyme activity of purified CD73. In a 25 μl reaction buffer (10mM HEPES, pH 7.4, 2mM MgCl2, 1mM CaCl2, and 0.1mg/ml BSA) containing enzyme and AMP substrate at 1μM to 10μM (96-well format), enzyme activity was performed at 23°C for specified time period and terminated by the addition of equal volume (25μl) of AMP-Glo™ Reagent I containing 50 μM (final concentration) of known CD73 inhibitor, such as AMPCP. Reactions were mixed well and incubated for additional 30 min at 23°C. This was followed by the addition of 50 μl of AMP Detection Solution (10μl of AMP-Glo™ Reagent II per ml of Kinase-Glo® One Solution) and incubated for additional 60 min at 23°C before reading luminescence.

Structure (SMILES)	inhibitory effect on purified CD39 (CD39 (His-Tag Human))	effect on CD73 enzyme activity ([1]; purified CD73, 0.1ng, 1μM AMP, 5 min at 23°C (Fig 6))	Km ([1]; 0.01ng CD73 per reaction, varying AMP, 5min at 23°C) [µM]
CCN(CC)c1ncnc2c1ncn2[C@@H]1O[C@H](COP(=O)(O)OP(=O)(O)C(Br)(Br)P(=O)(O)O)[C@@H](O)[C@H]1O.[Na+].[Na+].[Na+] [ARL 67156, 6-N,N-Diethyl-D-β,γ-dibromomethyleneATP trisodium salt]	inhibited	no effect	–
Nc1ncnc2c1ncn2[C@@H]1O[C@H](COP(=O)(O)O)[C@@H](O)[C@H]1O [AMP, adenosine monophosphate]	–	–	2.53
